Experimental data from ChEMBL document CHEMBL1201862, “PubChem BioAssay data set” (2004).
Calls of active or inactive are those of the source.

Key:
[1] = biological target: Endoplasmic reticulum aminopeptidase 1 (Homo sapiens, UniProt Q9NZ08); assay: inhibition of human ERAP1 enzyme activity – biochemical, cherry-pick, set 2, plate reader, dose response (AID 743314)
Caspase-6 = biological target: T1, Caspase-6 (Homo sapiens, UniProt P55212); assay: inhibition of CASP6 peptide cleavage – biochemical, VEID-R110 fluorescence, cherry-pick, dose response (AID 720632)
T1 sequence (P55212 whole entry): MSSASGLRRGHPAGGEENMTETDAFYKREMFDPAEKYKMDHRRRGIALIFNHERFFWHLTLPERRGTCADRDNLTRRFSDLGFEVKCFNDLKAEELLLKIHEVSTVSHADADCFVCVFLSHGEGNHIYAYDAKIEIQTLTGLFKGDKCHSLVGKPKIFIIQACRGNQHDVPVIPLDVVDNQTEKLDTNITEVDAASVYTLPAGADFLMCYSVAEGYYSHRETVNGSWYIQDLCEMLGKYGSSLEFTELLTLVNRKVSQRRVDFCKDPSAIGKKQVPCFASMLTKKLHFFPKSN

H9c2 = assay: cells; type: functional, cell-based; conditions: Rattus norvegicus, H9c2, Myocardium;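 also: confirmatory concentration-response retest of ultra-high-throughput screening hits for modulation of myocardial damage; cell death induced by hydrogen peroxide oxidative stress; compound pretreatment for 60 min then peroxide exposure for 2 h; potency is for protecting the cells against peroxide damage rather than for killing them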
[2] = viability loss in Vero cells – cytotoxicity control for Vif-APOBEC3G degradation inhibitor project, dose response (AID 1117358); type: functional; conditions: Vero
[3] = non-specific 3'UTR reporter inhibition in Clone20-Shn3RL – cell-based, Renilla luciferase, cherry-picked, counter-screen for Shn3 inhibitor project, dose response (AID 624133); type: functional
[4] = DRD fibroblast viability loss – cell-based, non-viral oncogenic, luminescence, dose response (AID 1934); type: functional; conditions: Homo sapiens
BJ [5] = assay: growth inhibition of engineered Ras-driven BJ cells – cell-based, alamar blue fluorescence, cherrypicked samples, dose response (AID 2631); type: functional; conditions: Homo sapiens;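 also: confirmatory dose-response assay in RAS-dependent BJ fibroblasts engineered with TERT, LT and ST, with cytotoxicity read by fluorescence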
[6] = Fluorescence-based cell-based high throughput dose response assay for inhibitors of the interaction of nucleotide-binding oligomerization domain containing 2 (NOD2) and the receptor-interacting serine-threonine kinase 2 (RIPK2).; type: functional; conditions: Homo sapiens
[7] = loss of viability in HepG2 cells – cell-based, CellTiter-Glo, cherry-picked, cytotoxicity control for Shn3 inhibitor project, dose response (AID 624134); type: functional
INS1 = assay: INS-1E survival protection against cytokine death – cell-based, luminescence, retest, dose response (AID 449756); type: functional; conditions: Rattus norvegicus;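 also: cell death triggered by IL-1 beta plus TNF-alpha plus IFN-gamma mixture; protective hits raise ATP signal compared with cytokine alone wells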
BJ [8] = assay: BJ-TERT-LT-ST fibroblast viability loss – cell-based, RAS-independent, luminescence, dose response (AID 1935); type: functional; conditions: Homo sapiens;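 also: BJ fibroblasts immortalized with TERT plus LT and ST oncogenes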
[9] = alpha-synuclein stem-loop luciferase translation blockers – H4 neuroglioma cells, luminescence, confirmation (AID 1988); type: functional, cell-based
BJ [10] = assay: BJ-TERT fibroblast viability loss – cell-based, RAS-independent, luminescence, dose response (AID 1933); type: functional; conditions: Homo sapiens
[11] = Luminescence Cell-Based Dose Response HTS to Identify Inhibitors of 5'UTR Stem-Loop Driven Prion Protein mRNA Translation in H4 Neuroglioblastoma Cells. [Related pubchem assays: 1827 (Project Summary), 1813 (Primary HTS)]; type: functional
[12] = biological target: T2, Replicative DNA helicase DnaB (Mycobacterium tuberculosis, UniProt P9WMR3); assay: DnaB intein splicing inhibitors, dose response, biochemical, cell-free fluorescence (AID 449749); type: functional
T2 sequence (P9WMR3 whole entry): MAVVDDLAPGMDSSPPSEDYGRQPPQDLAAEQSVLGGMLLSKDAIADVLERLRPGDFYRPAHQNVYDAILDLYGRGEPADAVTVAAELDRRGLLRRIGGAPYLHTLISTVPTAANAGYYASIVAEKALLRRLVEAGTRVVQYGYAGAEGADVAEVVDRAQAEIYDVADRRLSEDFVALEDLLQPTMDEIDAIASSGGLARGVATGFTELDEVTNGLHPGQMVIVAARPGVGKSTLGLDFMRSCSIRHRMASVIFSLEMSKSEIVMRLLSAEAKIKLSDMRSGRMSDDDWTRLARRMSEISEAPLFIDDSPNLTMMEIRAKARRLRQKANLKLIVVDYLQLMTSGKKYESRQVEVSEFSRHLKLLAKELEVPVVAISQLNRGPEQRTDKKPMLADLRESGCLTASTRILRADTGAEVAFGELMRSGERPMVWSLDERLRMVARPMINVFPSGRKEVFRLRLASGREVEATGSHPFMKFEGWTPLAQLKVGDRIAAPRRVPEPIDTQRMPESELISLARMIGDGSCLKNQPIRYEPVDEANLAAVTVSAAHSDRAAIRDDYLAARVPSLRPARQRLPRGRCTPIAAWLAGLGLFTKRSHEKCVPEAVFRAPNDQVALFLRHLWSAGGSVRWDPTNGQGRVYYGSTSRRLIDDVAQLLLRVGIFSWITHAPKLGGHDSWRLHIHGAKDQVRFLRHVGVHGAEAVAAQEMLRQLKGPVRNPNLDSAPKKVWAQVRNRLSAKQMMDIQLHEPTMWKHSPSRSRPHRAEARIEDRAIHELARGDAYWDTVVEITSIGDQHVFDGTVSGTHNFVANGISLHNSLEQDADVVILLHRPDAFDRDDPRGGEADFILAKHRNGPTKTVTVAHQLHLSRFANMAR

BJ [13] = assay: cells; type: functional, cell-based; conditions: Homo sapiens
[14] = luciferase reporter signal suppression in cells – H4 neuroglioma cells, luminescence, dose response (AID 1990); type: functional, cell-based
Protein RecA = biological target: T3, Protein RecA (Mycobacterium tuberculosis, UniProt P9WHJ3); assay: Fluorescence Cell-Free Homogeneous Dose Retest to Identify Inhibitors of RecA-Intein Splicing Activity. [Related pubchem assays (depositor defined):AID2097, AID2223, AID489010, AID492950]; type: functional
T3 sequence (P9WHJ3 whole entry): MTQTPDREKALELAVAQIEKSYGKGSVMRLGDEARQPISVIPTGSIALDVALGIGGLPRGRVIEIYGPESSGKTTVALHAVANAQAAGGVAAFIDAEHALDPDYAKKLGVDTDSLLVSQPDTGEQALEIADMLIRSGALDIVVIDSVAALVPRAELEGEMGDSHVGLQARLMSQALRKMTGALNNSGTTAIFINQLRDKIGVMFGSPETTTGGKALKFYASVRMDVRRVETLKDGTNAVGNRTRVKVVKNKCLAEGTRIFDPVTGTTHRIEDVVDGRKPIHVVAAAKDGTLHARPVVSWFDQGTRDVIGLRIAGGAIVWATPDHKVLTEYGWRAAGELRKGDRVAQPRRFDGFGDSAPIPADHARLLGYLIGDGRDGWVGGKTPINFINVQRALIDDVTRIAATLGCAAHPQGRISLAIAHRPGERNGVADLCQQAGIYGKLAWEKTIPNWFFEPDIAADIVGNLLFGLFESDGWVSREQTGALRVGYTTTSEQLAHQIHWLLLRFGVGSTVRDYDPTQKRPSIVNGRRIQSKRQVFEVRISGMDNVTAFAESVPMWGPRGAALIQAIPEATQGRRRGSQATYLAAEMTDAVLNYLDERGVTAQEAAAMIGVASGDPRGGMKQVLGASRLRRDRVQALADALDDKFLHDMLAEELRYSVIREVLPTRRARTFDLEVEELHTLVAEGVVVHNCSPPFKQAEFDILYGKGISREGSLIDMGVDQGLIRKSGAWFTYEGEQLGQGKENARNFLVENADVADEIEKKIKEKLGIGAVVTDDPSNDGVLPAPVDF

[15] = reduction of Shn3 3'UTR-driven luciferase in osteoblasts – cell-based, Clone20 osteoblasts, firefly luciferase, cherry-picked, dose response (AID 624132); type: functional;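 also: firefly luciferase luminescence from reporter carrying the Shn3 3'UTR in osteoblasts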

Sequence of Endoplasmic reticulum aminopeptidase 1 (Q9NZ08 whole entry): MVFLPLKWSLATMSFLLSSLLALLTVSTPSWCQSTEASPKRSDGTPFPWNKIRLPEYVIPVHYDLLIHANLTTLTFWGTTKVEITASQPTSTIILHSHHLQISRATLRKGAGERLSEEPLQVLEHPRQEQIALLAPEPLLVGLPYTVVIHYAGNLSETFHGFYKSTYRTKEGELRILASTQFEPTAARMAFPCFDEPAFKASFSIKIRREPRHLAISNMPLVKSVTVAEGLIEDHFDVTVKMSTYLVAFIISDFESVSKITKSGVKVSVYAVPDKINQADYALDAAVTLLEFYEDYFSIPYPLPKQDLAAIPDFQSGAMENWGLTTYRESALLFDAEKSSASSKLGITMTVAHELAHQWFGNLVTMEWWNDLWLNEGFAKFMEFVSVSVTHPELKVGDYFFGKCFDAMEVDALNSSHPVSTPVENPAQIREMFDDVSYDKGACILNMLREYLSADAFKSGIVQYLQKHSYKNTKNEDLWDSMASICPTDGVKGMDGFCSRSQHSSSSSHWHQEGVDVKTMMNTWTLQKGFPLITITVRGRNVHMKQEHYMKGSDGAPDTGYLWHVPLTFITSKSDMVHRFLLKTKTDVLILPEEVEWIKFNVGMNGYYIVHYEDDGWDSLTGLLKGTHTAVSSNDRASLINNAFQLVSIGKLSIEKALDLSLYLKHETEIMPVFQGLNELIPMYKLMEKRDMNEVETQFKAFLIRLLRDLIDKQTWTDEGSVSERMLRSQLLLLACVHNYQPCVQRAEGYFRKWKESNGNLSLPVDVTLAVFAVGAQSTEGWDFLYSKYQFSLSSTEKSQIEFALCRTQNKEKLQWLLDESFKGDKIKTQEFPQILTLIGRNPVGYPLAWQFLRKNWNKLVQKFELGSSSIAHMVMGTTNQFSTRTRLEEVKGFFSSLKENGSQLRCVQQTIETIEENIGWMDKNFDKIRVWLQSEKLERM

For CC(=O)N1[C@@H]2c3ccc(/C=C/c4ccccc4)c(=O)n3C[C@H]1[C@H](CO)[C@H]2C(=O)N(C)C, the AC50 [1] was 4.5 µM (active).
With Cc1ccc(NC(=O)c2cc(S(=O)(=O)NCC3CCCO3)ccc2F)cc1 (stereo not given) the AC50 (Caspase-6) was 45.9 µM (active).
In the case of Cc1ccc(C)c2nc(O)c(CN(Cc3ccc4c(c3)OCO4)Cc3nnnn3Cc3ccco3)cc12, the IC50 (H9c2) is reported as > 79 µM (inactive) and the CC50 [2] is reported as > 40 µM (active).
For O=C(Nc1ccc2nc3n(c(=O)c2c1)CCCCC3)c1c(F)ccc([N+](=O)[O-])c1F, the AC50 [3] was 4.65 µM (active), the EC50 [4] was 4.04 µM (inconclusive) and the EC50 (BJ [5]) was 0.571 µM (active). The IC50 [6] was 8.8 µM (active), the AC50 [7] was 12.5 µM (active) and the AC50 (INS1) was 6.28 µM (active). The AC50 (Caspase-6) was 4.39 µM (active), the EC50 (BJ [8]) was 50.7 µM (inconclusive) and the EC50 [9] was > 120 µM (not active). The EC50 (BJ [10]) was 17.7 µM (active), the EC50 [11] was > 120 µM (not active) and the AC50 [12] was 14.8 µM (active). The EC50 (BJ [13]) was > 150 µM (inconclusive), the EC50 [14] was > 120 µM (not active) and the EC50 (Protein RecA) was 5.17 µM (active). The AC50 [15] was 2.3 µM (active).
